Measured values published in BindingDB's records for doi:10.1021/acs.biochem.7b00151 (University of Missouri, 2017).

Each compound was assayed against T1, Tyrosine-protein phosphatase non-receptor type 1 [1-322] (Human, UniProt P18031) (assay: PTP1B Activity Assay). Details: pH 7.
T1 construct: 1-322
T1 sequence (P18031 whole entry): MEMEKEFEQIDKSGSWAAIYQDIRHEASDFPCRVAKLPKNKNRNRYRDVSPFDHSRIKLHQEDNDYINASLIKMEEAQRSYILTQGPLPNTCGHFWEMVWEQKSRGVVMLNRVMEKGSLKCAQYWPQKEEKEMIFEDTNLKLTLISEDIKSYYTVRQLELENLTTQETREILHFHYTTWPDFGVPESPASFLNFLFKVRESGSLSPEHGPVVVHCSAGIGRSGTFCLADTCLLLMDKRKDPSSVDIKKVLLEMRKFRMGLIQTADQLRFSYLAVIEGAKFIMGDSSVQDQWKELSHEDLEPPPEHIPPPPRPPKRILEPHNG
Experimental: The test compounds were introduced into the solutions as stock solutions dissolved in DMSO. After 20−30 s, the amount of PTP1B activity in the assays was assessed by measuring the increase in absorbance at 410 nm as a function of time resulting from the enzyme-mediated conversion of p-NPP to p-nitrophenolate.

IC50	Ki	Compound
77 µM	38.5 µM	Cc1ccc(-c2ccccc2)cc1N1CC(=O)NS1(=O)=O [5-(4-Methyl[1,1'-biphenyl]-3-yl)-1,2,5-thiadiazolidin-3-one 1,1-Dioxide (2b)]
64 µM	32 µM	CC(=O)Nc1ccc(-c2ccc(C)c(N3CC(=O)NS3(=O)=O)c2)cc1 [N-[3'-(1,1-Dioxido-4-oxo-1,2,5-thiadiazolidin-2-yl)-4'-methyl[1,1'-biphenyl]-4-yl]acetamide (5b)]
54 µM	27 µM	Cc1ccc(-c2ccc(NC(=O)CBr)cc2)cc1N1CC(=O)NS1(=O)=O [2-Bromo-N-[3'-(1,1-dioxido-4-oxo-1,2,5-thiadiazolidin-2-yl)-4'-methyl[1,1'-biphenyl]-4-yl]-acetamide (5a)]
